The test system of test [1] is H3K18Ac in HB-CLS-2 cells. The test is described as follows: H3K18AC in-cell western (ICW) assay. It counts as cell-based. The conditions noted are these: read-out: CREBBP ICW IC50. An excerpt: The following example describes methods and materials relating to an H3K18AC in-cell western assay. IC50 values (micromolar (μM)) are summarized in Table 1, Table 2, and Table 3 under the column labeled: “CREBBP ICW IC50 (micromolar).”
MATERIALS: HB-CLS-2 cell line, DMEM: Ham's F12 medium (1:1 mixture), penicillin-streptomycin, heat inactivated fetal bovine serum, D-PBS, Odyssey blocking buffer, 800CW goat anti-rabbit IgG (H+L) antibody, Licor Odyssey CLx Infrared Scanner, H3K18Ac rabbit monoclonal antibody. DRAQS fluorescent probe solution (5 mM), and 100% methanol were commercially available. HB-CLS-2 adherent cells were maintained in complete growth medium (DMEM: Ham's F12 supplemented with 10% v/v heat inactivated fetal bovine serum) and cultured at 37° C. under 5% CO2.
METHOD: Cell Treatment, ICW for detection of H3K18Ac and DNA content. HB-CLS-2 cells were seeded in assay medium (DMEM: Ham's F12 supplemented with 10% v/v heat inactivated fetal bovine serum and 1% Penicillin/Streptomycin) at a concentration of 80,000 cells per mL in a Poly-D-Lysine coated 384-well culture plates at 50 μL per well. Plates were incubated at room temperature for 30 minutes and then incubated at 37° C., 5% CO2 for additional 16-24 hours. Compounds and DMSO normalization were then added directly to the plates using a D300 Digital Dispenser and returned to the incubator at 37° C., 5% CO2 for 2 hrs. After the incubation, the contents of the plates were discarded into the appropriate waste stream and blotted on laboratory tissue to remove residual liquid. 90 μL per well of 100% ice cold methanol was added to the plates and incubated at room temperature for 15 minutes. Then methanol was then discarded into the appropriate waste stream and the plates again blotted on laboratory tissue to remove residual liquid. Plates were transferred to a Biotek 405 plate washer and washed 3 times with 100 μL per well of wash buffer (1X PBS containing 0.1% Triton X-100 (v/v)). Next, 50 μL per well of Odyssey blocking buffer with 0.1% Tween 20 (v/v) was added to each plate and incubated for 1 hour at room temperature. Blocking buffer was removed and 20 μL of primary antibody were added (α-H3K18Ac diluted 1:800 in Odyssey buffer with 0.1% Tween 20 (v/v)) and plates were incubated overnight (16 hours) at 4° C. Plates were washed 5 times with 100 μL per well of wash buffer. Next 20 μL per well of secondary antibody was added (1:400 800CW goat anti-rabbit IgG (H+L) antibody, 1:2000 DRAQ5 in Odyssey buffer with 0.1% Tween 20 (v/v)) and incubated for 1 hour at room temperature. The plates were washed 3 times with 100 μL per well wash buffer then 3 times with 100 μL per well of water. Plates were allowed to dry at room temperature then imaged on the Licor Odyssey CLx machine which measured integrated intensity at 700 nm and 800 nm wavelengths. Both 700 and 800 channels were scanned.

Test [2] concerns 647V cells. The test is described as follows: High throughput proliferation (HTP) assay. It counts as cell-based. To be noted: read-out: CREBBP HTP IC50. From the text: The following example describes methods and materials relating to a high throughput proliferation (HTP) assay. IC50 values (micromolar) are summarized in Table 1, Table 2, and Table 3 under the column labeled: “CREBBP HTP IC50 (micromolar).”
MATERIALS: 647V cell line, Dulbecco's MEM, penicillin-streptomycin, heat inactivated fetal bovine serum, D-PBS, and CellTiter-Glo were commercially available.
647V adherent cells were maintained in complete growth medium (Dulbecco's MEM supplemented with 15% v/v heat inactivated fetal bovine serum) and cultured at 37° C. under 5% CO2.
METHOD: Measurement of the effect of compound in High Throughput Proliferation (HTP) assays was performed as follows: Exponentially growing 647V cells were plated, in triplicate, in 384-well plates at the appropriate cell density in a final volume of 50 μl. Cells were incubated in the presence of increasing concentrations of compound. Viable cell number was determined at day 7 by addition of 35 μl CellTiter-Glo to each well of the plate, incubated in the dark for 30 minutes, and read on a PerkinElmer EnVision instrument to enumerate the number of cells.

Test [3] concerns the target T1, CREBBP (1084-1701) (Homo sapiens, UniProt Q92793).
T1 construct: measured in the following biochemical assay using CREBBP (1084-1701); purchased
The test is described as follows: Biochemical assay for CREBBP (1084-1701), SAMDI. To be noted: SAMDI, read-out: CREBBP Biochemistry IC50. Put shortly:
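CREBBP (1084-1701) preincubated with compound 30 min at RT, then substrate mix (biotin-H3 11-25 K14R/K23R peptide, acetyl-CoA) added for 30 min at RT. Reaction stopped with formic acid, neutralised with sodium bicarbonate. Peptide acetylation read by SAMDI mass spectrometry to derive IC50.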

[4] abbreviates: Homo sapiens, 647-V, high throughput proliferation.
Where [5] appears, read: H3K18Ac in-cell western, HB-CLS-2 cells.
Setting [6] is: Homo sapiens, 647-V, high throughput proliferation, 647V cells.

Where two headings read alike, the source gives them in different places.

T1 sequence (Q92793 1084-1701): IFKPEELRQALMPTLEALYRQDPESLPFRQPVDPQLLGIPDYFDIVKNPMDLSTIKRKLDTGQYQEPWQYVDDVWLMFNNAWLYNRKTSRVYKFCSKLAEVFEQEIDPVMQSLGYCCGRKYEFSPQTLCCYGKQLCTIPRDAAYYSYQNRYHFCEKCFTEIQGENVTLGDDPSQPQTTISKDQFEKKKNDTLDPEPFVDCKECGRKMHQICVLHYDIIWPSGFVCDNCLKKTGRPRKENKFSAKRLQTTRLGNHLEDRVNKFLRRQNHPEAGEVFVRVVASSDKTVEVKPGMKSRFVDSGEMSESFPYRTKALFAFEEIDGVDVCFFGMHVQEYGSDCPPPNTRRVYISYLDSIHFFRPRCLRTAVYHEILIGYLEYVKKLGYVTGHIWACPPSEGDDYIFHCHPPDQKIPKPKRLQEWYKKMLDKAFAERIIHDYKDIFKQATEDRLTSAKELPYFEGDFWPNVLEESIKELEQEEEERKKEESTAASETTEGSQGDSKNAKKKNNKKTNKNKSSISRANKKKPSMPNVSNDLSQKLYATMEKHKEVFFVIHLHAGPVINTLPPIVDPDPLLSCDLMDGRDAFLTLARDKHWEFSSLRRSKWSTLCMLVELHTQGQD

In general, IC50 refers to the point on the concentration scale where inhibition reaches its midpoint. For `CCn1ncc(CN(C)C(=O)c2nc(-c3ccc4nc[nH]c4c3)nc3ccc(Cl)cc23)c1C` [Compound 47], the 50% inhibitory concentration (IC50) in test [1] (H3K18Ac in-cell western) was found to be 0.43 µM; in test [2] (setting [4]), 0.42 µM.
On to `CCn1ncc(CN(C)C(=O)c2nc(-c3ccc4[nH]cnc4c3)nc3ccc(Cl)cc23)c1C` [Compound 57], for which the results for the half-maximal inhibitory concentration (IC50) in test [1] (H3K18Ac in-cell western) and in test [2] (setting [4]) were 0.66 µM and 0.5 µM, respectively.
On to `CCn1ncc(CN(C)C(=O)c2nc(-c3ccc4nc[nH]c4c3)nc3ccc(Cl)cc23)c1C` [Compound 59], for which the results for the half-inhibitory concentration (IC50) in test [1] (H3K18Ac in-cell western) and in test [2] (high throughput proliferation) were 0.67 µM and 0.44 µM, respectively.
Consider `CCn1ncc(CN(C)C(=O)c2cc(-n3cc4c(n3)CN(C(=O)OC(C)(C)C)CC4)nc3ccc(Cl)cc23)c1C` [Compound 178], for which the half-inhibitory concentration (IC50) in test [1] (H3K18Ac in-cell western) was found to be 17 µM; in test [2] (setting [4]), 4.8 µM.
As to `CCn1ncc(CN(C)C(=O)c2nc(-c3cc(Cl)cc(OCCCNC(=O)OC(C)(C)C)c3)nc3ccc(Cl)cc23)c1C` [Compound 180], the IC50 turned out to be 19 µM in test [1] (H3K18Ac in-cell western) and 20 µM in test [2] (setting [4]).
For `CCn1ncc(CN(C)C(=O)c2nc(-n3ncc4c3CN(C(=O)OC(C)(C)C)CC4)nc3ccc(Cl)cc23)c1C` [Compound 192], the IC50 was 20 µM in test [1] (H3K18Ac in-cell western) and 9.4 µM in test [2] (setting [4]).
As for `CCn1ncc(CN(C)C(=O)c2nc(-n3cc4c(n3)CN(C(=O)OC(C)(C)C)CC4)nc3ccc(Cl)cc23)c1C` [Compound 193], the figures for the IC50 in test [1] (H3K18Ac in-cell western) and in test [2] (setting [4]) were 20 µM and 8.2 µM, respectively.
With `CCn1ncc(CN(C)C(=O)c2nc(N3CCCN(C)CC3)nc3ccc(Cl)cc23)c1C` [Compound 196], the IC50 in test [1] (H3K18Ac in-cell western) came out at 20 µM; in test [2] (setting [4]), 17 µM.
Consider `CCc1cc(-c2nc(C(=O)N(C)Cc3cnn(CC)c3C)c3cc(Cl)ccc3n2)ccc1OCCCN(C)C(=O)OC(C)(C)C` [Compound 209], for which the half-maximal inhibitory concentration (IC50) in test [1] (setting [5]) stood at 20 µM; in test [2] (setting [6]) it was 8.8 µM.
With `CCn1ncc(CN(C)C(=O)c2cc(-c3ccc(OCCCNC)cn3)nc3ccc(Cl)cc23)c1C` [Compound 219], the 50% inhibitory concentration (IC50) in test [1] (setting [5]) and in test [2] (setting [6]) was 20 µM throughout.
Take `CCc1[nH]cc(CN(C)C(=O)c2nc(-c3ccccc3Cl)nc3ccc(Cl)cc23)c1C` [Compound 221]: the IC50 in test [1] (setting [5]) was determined as 20 µM; in test [2] (setting [6]), 10 µM.
In the same order, the values of `Cc1n[nH]c(C)c1CN(C)C(=O)c1nc(-c2ccccc2Cl)nc2ccc(Cl)cc12` [Compound 229] are 20 µM and 20 µM.
For the compound `CCn1ncc(CN(C)C(=O)c2nc(-c3cn(CCCN(C)C(=O)OC(C)(C)C)cn3)nc3ccc(Cl)cc23)c1C` [Compound 230], the concentration for half-maximal inhibition (IC50) in test [1] (setting [5]) and in test [2] (setting [6]) was 20 µM throughout.
On to `CCn1ncc(CN(C)C(=O)c2nc(-c3cc(Cl)cc(OCCCN(C)C(=O)OC(C)(C)C)c3)nc3ccc(Cl)cc23)c1C` [Compound 233], for which the half-maximal inhibitory concentration (IC50) in test [1] (setting [5]) and in test [2] (setting [6]) was 20 µM each time.
Take `CCn1ncc(CN(C)C(=O)c2nc(-c3ccc(OCCNC)cn3)nc3ccc(Cl)cc23)c1C` [Compound 238]: the IC50 in test [1] (setting [5]) and in test [2] (setting [6]) was 20 µM throughout.
Consider `CCn1ncc(CN(C)C(=O)c2cc(-c3cn(Cc4ccc(OC)cc4)c(CN(C)C)n3)nc3ccc(Cl)cc23)c1C` [Compound 239], for which the IC50 in test [1] (setting [5]) and in test [2] (setting [6]) was 20 µM each time.
With `CCn1ncc(CN(C)C(=O)c2nc(-c3cn(CCN(C)C(=O)OC(C)(C)C)cn3)nc3ccc(Cl)cc23)c1C` [Compound 240], the 50% inhibitory concentration (IC50) in test [1] (setting [5]) and in test [2] (setting [6]) was 20 µM throughout.
Regarding `CCn1ncc(CN(C)C(=O)c2nc(N3CCN(C)CC3)nc3ccc(Cl)cc23)c1C` [Compound 245], the IC50 in test [1] (setting [5]) and in test [2] (setting [6]) was 20 µM each time.
Take `CCn1ncc(CN(C)C(=O)c2nc(-c3ccccc3F)nc3ccc(Cl)cc23)c1C` [Compound 335]: the IC50 came to 0.53 µM in test [3] and 1.5 µM in test [1] (setting [5]).
On to `CCc1ncc(CN(C)C(=O)c2cc(-c3ccccc3Cl)nc3ccc(Cl)cc23)n1C` [Compound 336], for which the IC50 in test [3] came out at 0.69 µM; in test [1] (setting [5]), 1.2 µM.
On to `Cc1c(CN(C)C(=O)c2nc(-c3ccccc3Cl)nc3ccc(Cl)cc23)cnn1CC(F)(F)F` [Compound 337], for which the half-maximal inhibitory concentration (IC50) in test [3] was determined as 0.63 µM; in test [1] (setting [5]), 2.3 µM.
Regarding `CCn1ncc(CN(CCO)C(=O)c2nc(-c3cccc(Cl)c3)nc3ccc(Cl)cc23)c1C` [Compound 346], the values for the IC50 in test [3] and in test [1] (setting [5]) were 0.42 µM and 1.3 µM, respectively.
`CCN(Cc1cnn(CC)c1C)C(=O)c1nc(-c2cccc(Cl)c2)nc2ccc(Cl)cc12` [Compound 347]: the values for the IC50 in test [3] and in test [1] (setting [5]) were 0.53 µM and 5.6 µM, respectively.
In the same order, the values of `CCn1ncc(CN(C)C(=O)c2cc(-c3ccccc3Cl)nc3c(C)cc(Cl)cc23)c1C` [Compound 350] are 0.63 µM and 6.4 µM.
Turning to `CCc1noc(CN(C)C(=O)c2nc(-c3ccccc3Cl)nc3ccc(Cl)cc23)c1C` [Compound 356], the IC50 in test [3] turned out to be 0.4 µM; in test [1] (setting [5]) it was 1.9 µM.
Regarding `CCn1ncc(CN(C)C(=O)c2nc(-c3cccc(Cl)c3)nc3ccc(COC)cc23)c1C` [Compound 357], the IC50 in test [3] was determined as 0.028 µM; in test [1] (setting [5]) it was 0.72 µM.
Turning to `CCn1ncc(CN(C)C(=O)c2nc(-c3cn[nH]c3)nc3ccc(Cl)cc23)c1C` [Compound 358], the values for the IC50 in test [3] and in test [1] (setting [5]) were 16 µM and 13 µM, respectively.
For `CCn1ncc(CN(C)C(=O)c2nc(-c3ccccc3Cl)nc3cc(C)c(Cl)cc23)c1C` [Compound 359] the same measures were 0.4 µM and 1 µM.
`CCc1ccc2nc(-c3cccc(Cl)c3)nc(C(=O)N(C)Cc3cnn(CC)c3C)c2c1` [Compound 361]: the IC50 in test [3] was found to be 0.0028 µM; in test [1] (setting [5]), 0.48 µM.
`CCn1ncc(CN(C)C(=O)c2nc(-c3ccccc3C)nc3ccc(Cl)cc23)c1C` [Compound 362]: the values for the concentration for half-maximal inhibition (IC50) in test [3] and in test [1] (setting [5]) were 0.71 µM and 1.2 µM, respectively.
Consider `CCn1ncc(CN(C)C(=O)c2nc(-c3cncn3C)nc3ccc(Cl)cc23)c1C` [Compound 363], for which the 50% inhibitory concentration (IC50) in test [3] was determined as 9.2 µM; in test [1] (setting [5]), 7.4 µM.
In the same order, the values of `CCn1ncc(CN(C)C(=O)c2cc(-c3cccc(Cl)c3)nc3ccc(N(C)C)cc23)c1C` [Compound 369] are 5.5 µM and 15 µM.
For the compound `CCn1ncc(CN(C)C(=O)c2nc(-c3ccc(OC)cc3)nc3ccc(Cl)cc23)c1C` [Compound 373], the concentration for half-maximal inhibition (IC50) in test [3] amounted to 2.3 µM; in test [1] (setting [5]), 4.5 µM.
Consider `CCc1ccc(-c2nc(C(=O)N(C)Cc3cnn(CC)c3C)c3cc(Cl)ccc3n2)cc1` [Compound 374], for which the concentration for half-maximal inhibition (IC50) in test [3] was 9.2 µM; in test [1] (setting [5]), 18 µM.
Take `CCn1ncc(CN(C)C(=O)c2cc(-c3ccc(NCC(O)CN(C)C)c(C)n3)nc3ccc(COC)cc23)c1C` (stereo not shown) [Compound 643]: the IC50 was 0.327 µM in test [1] (2 h, H3K18Ac in HB-CLS-2 cells, 2 hrs compound incubation) and 0.233 µM in test [2] (Homo sapiens, 647-V, 168 h, 647V cells, day 7, CellTiter-Glo).

These data come from patent US20220144812A1, “QUINOLINE DERIVATIVES AND THEIR USE FOR THE TREATMENT OF CANCER” (Epizyme, Inc., priority 2019, published 2022).
